ChEMBL document CHEMBL1201862, “PubChem BioAssay data set” (2004)
Where a name gives a salt, the structure may show the parent alone. One block for each molecule: values may come before it. Activity calls are given as the source filed them.

Columns and labels:
[1] = biological target: Voltage-gated inwardly rectifying potassium channel KCNH2 (Homo sapiens, UniProt Q12809); conditions: Potency;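 also: confirmatory quantitative high-throughput screen measuring inhibition of hERG channel activity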
[2] = biological target: Beta-2 adrenergic receptor (Homo sapiens, UniProt P07550); test: ADRB2 activation measured by internalization – cell-based, FAP fluorogen, flow cytometry, cherry pick 1, dose response (AID 588763); type: functional
[3] = viability of HCT116 lacking mutant beta-catenin – cell-based, human colon tumor, dose response (AID 1045); type: functional;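 also: HCT116 colon tumor cells with beta catenin knocked out; cells exposed to compound for 60 hours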
[4] = viability of PTEN-deleted HCT116 cells – cell-based, HCT116 PTEN knockout, dose response (AID 1047); type: functional;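 also: HCT116 colon tumor cells with PTEN knocked out; cells exposed to compound for 60 hours before readout; potency for loss of cell viability measured by luminescence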
[5] = biological target: Peroxisome proliferator-activated receptor gamma/Nuclear receptor coactivator 2 (Homo sapiens, UniProt P37231); type: functional;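 also: agonist potency for raising coactivator recruitment to the receptor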
SUMO-activating enzyme = SUMO-activating enzyme (Homo sapiens, UniProt Q9UBT2); test: blockers of UBC9-mediated SUMO conjugation – biochemical, AlphaScreen, SUMOylation inhibitor project, confirmation (AID 2018); type: functional
[6] = biological target: Peroxisome proliferator-activated receptor gamma/Nuclear receptor coactivator 1 (Homo sapiens, UniProt P37231); type: functional;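 also: agonist potency as compounds enhance coactivator SRC-1 recruitment to PPARgamma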
[7] = biological target: Peroxisome proliferator-activated receptor gamma/Nuclear receptor coactivator 3 (Homo sapiens, UniProt P37231); type: functional;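 also: agonist potency for raising coactivator recruitment to the receptor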
Phospholipase A2 = Phospholipase A2 (Homo sapiens, UniProt P04054); type: functional;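 also: confirmatory dose-response counterscreen on phospholipase A2, testing hits that came from an ultra-high-throughput screen for ATG4B inhibitors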
Cysteine protease ATG4B = Cysteine protease ATG4B (Homo sapiens, UniProt Q9Y4P1); type: functional;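 also: Fluorescence-based dose-response confirmation assay measuring inhibition of ATG4B activity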
HEK293 = test: cells; type: functional, cell-based; conditions: Homo sapiens
[8] = biological target: T1, Nuclear receptor subfamily 0 group B member 1 (Homo sapiens, UniProt P51843); test: Luminescence-based cell-based high throughput dose response assay for inhibitors of the orphan nuclear receptor subfamily 0, group B, member 1 (DAX1; NR0B1). [Related pubchem assays (depositor defined):AID504766, AID504790]; type: functional
T1 sequence (P51843 whole entry): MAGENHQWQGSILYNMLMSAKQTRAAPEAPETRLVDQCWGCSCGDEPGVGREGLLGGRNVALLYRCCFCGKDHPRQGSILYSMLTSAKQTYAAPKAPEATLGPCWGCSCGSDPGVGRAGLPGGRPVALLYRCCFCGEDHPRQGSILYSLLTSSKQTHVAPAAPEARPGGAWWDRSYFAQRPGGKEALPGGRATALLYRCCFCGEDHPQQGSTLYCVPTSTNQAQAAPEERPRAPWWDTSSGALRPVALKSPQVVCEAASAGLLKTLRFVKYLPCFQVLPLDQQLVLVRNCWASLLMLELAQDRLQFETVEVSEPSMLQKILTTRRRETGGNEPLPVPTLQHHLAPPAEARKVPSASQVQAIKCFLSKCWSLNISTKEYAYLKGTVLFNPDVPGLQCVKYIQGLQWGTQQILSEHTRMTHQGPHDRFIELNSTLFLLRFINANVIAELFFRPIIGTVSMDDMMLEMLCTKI

[9] = Luminescence Cell-Based Dose Retest to Confirm Inhibitors of Cancer Stem Cells. [Related pubchem assays (depositor defined):AID2717, AID2721]; type: functional; conditions: Homo sapiens
[10] = fluconazole-exposed Candida albicans growth modulators – fluorescence, retest, confirmation (AID 2467); type: functional, cell-based
[11] = NIH-3T3 fibroblast cytotoxicity, dose response, cytotoxicity control, cell-based, fluorescence, Alamar Blue, secondary assay (AID 2327); type: functional;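 also: NIH-3T3 mouse fibroblasts cultured with fluconazole at 8 µg/mL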
Mu-type opioid receptor = Mu-type opioid receptor (Homo sapiens, UniProt P35372); type: functional, cell-based;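 also: U2OS cells with beta-arrestin recruitment to OPRM1 by beta-gal complementation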
[12] = biological target: 5-hydroxytryptamine receptor 2A (Mus musculus, UniProt P35363); type: functional, cell-based;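 also: CHO-K1 cells with tagged receptor and beta-arrestin; agonist potency measured as compound-induced activation of the receptor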
[13] = biological target: Type-1 angiotensin II receptor (Homo sapiens, UniProt P30556); test: antagonism of angiotensin II type 1 receptor – cell-based, uHTS hits, selectivity assay for APJ receptor antagonist project, dose response (AID 463214); type: functional;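 also: antagonist potency against angiotensin II stimulated AT1 response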
[14] = biological target: T2, Microphthalmia-associated transcription factor (Homo sapiens, UniProt O75030); test: reducers of TRPM1 reporter luminescence, concentration series – cell-based, SK-MEL-5, cherry-picked, set 3, MITF inhibitor project, dose response (AID 493073); type: functional;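 also: SK-MEL-5 melanoma cells with luciferase driven by the MITF target TRPM1 promoter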
T2 sequence (O75030 whole entry): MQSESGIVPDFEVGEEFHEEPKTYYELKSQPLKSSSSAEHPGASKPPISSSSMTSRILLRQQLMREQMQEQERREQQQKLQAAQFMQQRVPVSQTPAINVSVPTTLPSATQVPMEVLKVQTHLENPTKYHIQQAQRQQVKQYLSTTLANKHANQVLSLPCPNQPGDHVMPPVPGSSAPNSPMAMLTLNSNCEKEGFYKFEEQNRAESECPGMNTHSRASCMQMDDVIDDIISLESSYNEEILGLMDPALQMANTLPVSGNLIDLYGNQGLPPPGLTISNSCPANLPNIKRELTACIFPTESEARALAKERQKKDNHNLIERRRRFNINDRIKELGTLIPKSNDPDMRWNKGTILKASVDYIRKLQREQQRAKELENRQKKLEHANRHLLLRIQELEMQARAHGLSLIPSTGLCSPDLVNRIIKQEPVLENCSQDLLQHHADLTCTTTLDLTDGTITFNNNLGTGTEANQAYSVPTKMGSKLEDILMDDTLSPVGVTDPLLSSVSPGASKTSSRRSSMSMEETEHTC

Beta-galactosidase = Beta-galactosidase (Escherichia coli, UniProt Q8VNN2); test: PubChem AID 485352; type: functional
cells [15] = type: functional, cell-based
[16] = Trypanosoma cruzi growth suppression in host cells – NIH3T3 host cells, beta-gal luminescence, confirmation (AID 2044); type: functional, cell-based;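 also: intracellular parasites grown in NIH/3T3 mouse fibroblasts as host cells; luminescent beta-galactosidase reporter signal from transgenic T. cruzi replicating inside host cells; inhibitors lower the luminescence signal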
INS1 = test: INS-1E survival protection against cytokine death – cell-based, luminescence, retest, dose response (AID 449756); type: functional; conditions: Rattus norvegicus;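 also: cell death triggered by IL-1 beta plus TNF-alpha plus IFN-gamma mixture; protective hits raise ATP signal compared with cytokine alone wells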
cells [17] = type: functional, cell-based; remark: listed apart in the source
[18] = NIH3T3 cell viability loss – ATP luminescence, mouse fibroblasts, counter-screen, dose response (AID 2010); type: functional, cell-based;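 also: cells exposed to compound for about 90 hours before reading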
[19] = biological target: T3, DNA repair and recombination protein RAD54-like (Homo sapiens, UniProt Q92698); test: RAD54 Holliday junction migration blockers – biochemical, fluorescence, cherry-picked samples, dose series, confirmation (AID 651657); type: functional
T3 sequence (Q92698 whole entry): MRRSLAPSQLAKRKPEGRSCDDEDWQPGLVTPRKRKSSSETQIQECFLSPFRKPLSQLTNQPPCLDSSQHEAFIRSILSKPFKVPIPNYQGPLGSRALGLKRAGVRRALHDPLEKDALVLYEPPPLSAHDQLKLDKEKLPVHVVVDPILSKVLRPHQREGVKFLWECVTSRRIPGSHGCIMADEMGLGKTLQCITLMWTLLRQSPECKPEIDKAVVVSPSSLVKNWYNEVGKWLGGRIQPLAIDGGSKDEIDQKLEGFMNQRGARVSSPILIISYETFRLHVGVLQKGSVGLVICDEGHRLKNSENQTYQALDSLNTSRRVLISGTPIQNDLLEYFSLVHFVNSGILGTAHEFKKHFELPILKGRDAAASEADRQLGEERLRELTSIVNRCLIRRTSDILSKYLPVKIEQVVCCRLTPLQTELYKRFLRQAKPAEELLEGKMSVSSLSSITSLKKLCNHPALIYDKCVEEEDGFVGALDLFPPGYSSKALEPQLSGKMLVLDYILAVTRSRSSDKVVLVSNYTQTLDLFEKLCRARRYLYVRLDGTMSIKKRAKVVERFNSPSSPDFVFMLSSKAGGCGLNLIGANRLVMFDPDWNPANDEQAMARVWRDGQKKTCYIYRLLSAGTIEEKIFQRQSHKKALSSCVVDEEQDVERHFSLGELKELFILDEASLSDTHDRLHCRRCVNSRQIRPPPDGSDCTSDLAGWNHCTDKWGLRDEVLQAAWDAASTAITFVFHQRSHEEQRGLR

[20] = tested on: Streptococcus sp. 'group A'; test: Streptococcus pyogenes SK(-)GAS viability under kanamycin – luminescence, BacTiterGlo, confirmation, counter-screen for streptokinase expression inhibitor project, dose response (AID 1900); type: functional, organism-based
Streptococcus = test: GAS UMAA2166 growth inhibition – luminescence, BacTiterGlo, counter-screen for streptokinase expression inhibitor project, dose response (AID 1915); type: functional, organism-based;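 also: potency for reduction of bacterial viability or growth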
[21] = biological target: T4, Calpain-2 catalytic subunit (Sus scrofa, UniProt P43367); test: m-calpain protease blockers, concentration series – biochemical, fluorogenic peptide substrate, dose response (AID 1420); type: functional
T4 sequence (P43367 whole entry): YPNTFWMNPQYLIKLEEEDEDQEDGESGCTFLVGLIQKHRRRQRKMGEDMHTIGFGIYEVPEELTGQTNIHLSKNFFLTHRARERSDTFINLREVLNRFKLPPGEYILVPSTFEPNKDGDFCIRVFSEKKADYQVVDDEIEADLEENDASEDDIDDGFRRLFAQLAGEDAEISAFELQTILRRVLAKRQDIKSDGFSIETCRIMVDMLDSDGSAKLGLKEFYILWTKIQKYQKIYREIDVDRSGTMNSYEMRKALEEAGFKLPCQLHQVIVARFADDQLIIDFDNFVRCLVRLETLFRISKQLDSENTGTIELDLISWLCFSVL

Sequence of Beta-2 adrenergic receptor (P07550 whole entry): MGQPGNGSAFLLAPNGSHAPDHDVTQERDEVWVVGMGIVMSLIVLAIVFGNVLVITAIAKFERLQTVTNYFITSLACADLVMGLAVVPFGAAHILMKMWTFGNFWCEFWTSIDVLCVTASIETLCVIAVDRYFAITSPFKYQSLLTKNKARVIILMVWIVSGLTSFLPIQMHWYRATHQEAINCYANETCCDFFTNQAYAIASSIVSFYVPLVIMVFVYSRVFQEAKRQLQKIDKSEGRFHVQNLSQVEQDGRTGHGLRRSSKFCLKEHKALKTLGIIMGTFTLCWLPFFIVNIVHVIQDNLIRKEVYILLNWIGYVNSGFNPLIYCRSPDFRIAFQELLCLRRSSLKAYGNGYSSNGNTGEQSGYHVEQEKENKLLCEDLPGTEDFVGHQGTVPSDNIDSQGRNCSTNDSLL
Sequence of Beta-galactosidase (Q8VNN2 whole entry): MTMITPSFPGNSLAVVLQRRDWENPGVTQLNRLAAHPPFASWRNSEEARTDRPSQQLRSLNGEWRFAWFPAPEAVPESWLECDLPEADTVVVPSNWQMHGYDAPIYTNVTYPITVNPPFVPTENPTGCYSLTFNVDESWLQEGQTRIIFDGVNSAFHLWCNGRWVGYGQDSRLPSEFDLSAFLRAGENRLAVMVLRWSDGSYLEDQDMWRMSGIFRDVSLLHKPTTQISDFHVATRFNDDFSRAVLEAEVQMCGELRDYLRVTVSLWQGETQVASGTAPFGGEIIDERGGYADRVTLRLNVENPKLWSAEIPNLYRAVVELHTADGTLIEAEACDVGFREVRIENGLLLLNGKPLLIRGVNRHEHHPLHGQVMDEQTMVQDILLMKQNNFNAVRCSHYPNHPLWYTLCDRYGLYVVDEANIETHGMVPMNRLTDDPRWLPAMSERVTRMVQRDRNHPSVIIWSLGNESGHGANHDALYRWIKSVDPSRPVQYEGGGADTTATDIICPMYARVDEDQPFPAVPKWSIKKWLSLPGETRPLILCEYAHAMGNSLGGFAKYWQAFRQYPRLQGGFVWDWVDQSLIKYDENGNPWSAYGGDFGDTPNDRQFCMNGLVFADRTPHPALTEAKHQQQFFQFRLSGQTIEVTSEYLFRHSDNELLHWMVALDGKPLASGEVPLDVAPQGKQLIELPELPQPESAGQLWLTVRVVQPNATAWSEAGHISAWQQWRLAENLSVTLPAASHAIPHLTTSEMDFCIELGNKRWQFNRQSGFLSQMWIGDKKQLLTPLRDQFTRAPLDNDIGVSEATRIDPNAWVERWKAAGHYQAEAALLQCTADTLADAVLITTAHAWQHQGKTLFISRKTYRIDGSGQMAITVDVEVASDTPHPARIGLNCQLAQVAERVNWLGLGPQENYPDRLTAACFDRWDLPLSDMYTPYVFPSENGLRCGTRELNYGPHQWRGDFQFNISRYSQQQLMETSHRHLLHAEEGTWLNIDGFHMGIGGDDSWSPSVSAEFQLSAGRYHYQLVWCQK
Sequence of Voltage-gated inwardly rectifying potassium channel KCNH2 (Q12809 whole entry): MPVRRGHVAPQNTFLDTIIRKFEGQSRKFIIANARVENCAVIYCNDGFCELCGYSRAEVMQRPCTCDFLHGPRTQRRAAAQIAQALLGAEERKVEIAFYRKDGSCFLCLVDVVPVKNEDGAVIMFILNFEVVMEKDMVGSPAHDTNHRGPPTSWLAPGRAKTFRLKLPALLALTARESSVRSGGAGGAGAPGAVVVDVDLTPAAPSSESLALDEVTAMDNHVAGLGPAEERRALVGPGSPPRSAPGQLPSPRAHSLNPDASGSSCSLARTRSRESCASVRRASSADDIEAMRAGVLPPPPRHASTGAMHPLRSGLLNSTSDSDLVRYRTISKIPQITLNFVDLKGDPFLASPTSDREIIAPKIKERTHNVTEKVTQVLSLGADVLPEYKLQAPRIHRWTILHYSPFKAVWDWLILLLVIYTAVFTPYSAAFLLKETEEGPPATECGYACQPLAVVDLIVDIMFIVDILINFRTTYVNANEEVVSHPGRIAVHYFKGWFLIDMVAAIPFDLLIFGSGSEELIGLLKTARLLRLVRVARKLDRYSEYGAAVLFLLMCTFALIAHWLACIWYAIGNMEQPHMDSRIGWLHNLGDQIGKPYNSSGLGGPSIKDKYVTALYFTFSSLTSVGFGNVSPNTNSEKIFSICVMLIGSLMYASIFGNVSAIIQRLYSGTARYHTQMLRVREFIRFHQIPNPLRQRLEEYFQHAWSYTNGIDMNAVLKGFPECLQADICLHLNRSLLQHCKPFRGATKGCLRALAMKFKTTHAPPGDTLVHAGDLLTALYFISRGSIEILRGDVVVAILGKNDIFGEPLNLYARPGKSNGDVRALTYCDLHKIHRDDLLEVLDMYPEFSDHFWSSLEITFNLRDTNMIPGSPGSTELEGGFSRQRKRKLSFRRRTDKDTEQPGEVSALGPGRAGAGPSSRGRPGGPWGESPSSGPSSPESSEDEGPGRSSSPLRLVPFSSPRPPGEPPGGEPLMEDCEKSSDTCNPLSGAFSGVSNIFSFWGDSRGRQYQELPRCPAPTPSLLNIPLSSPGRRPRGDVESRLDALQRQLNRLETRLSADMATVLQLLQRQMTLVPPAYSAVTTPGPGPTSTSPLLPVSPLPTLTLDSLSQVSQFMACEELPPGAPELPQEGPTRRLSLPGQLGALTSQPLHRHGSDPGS
Sequence of Cysteine protease ATG4B (Q9Y4P1 whole entry): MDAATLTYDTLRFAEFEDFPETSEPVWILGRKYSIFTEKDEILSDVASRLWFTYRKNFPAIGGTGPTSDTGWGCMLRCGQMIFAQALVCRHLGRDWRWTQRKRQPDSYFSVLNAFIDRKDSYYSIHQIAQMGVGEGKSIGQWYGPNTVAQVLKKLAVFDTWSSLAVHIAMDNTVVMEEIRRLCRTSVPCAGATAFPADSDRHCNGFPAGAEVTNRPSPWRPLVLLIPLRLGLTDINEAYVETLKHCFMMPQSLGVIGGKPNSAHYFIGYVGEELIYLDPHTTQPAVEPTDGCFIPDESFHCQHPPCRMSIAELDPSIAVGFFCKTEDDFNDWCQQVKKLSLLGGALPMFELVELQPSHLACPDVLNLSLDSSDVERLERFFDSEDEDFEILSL
Sequence of Phospholipase A2 (P04054 whole entry): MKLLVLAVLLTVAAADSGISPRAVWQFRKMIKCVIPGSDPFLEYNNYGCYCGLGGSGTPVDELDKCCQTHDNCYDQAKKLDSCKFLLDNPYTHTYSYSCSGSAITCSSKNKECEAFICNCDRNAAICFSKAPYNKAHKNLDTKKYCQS
Sequence of Type-1 angiotensin II receptor (P30556 whole entry): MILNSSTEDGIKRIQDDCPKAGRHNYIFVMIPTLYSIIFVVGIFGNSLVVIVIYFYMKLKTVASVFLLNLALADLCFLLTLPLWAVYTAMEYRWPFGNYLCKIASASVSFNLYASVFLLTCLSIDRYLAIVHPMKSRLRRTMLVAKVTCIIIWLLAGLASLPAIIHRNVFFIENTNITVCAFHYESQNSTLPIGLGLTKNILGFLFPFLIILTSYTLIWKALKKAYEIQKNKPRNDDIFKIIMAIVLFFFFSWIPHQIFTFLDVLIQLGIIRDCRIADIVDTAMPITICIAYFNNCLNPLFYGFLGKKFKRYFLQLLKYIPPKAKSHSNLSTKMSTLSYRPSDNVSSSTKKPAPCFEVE
Sequence of 5-hydroxytryptamine receptor 2A (P35363 whole entry): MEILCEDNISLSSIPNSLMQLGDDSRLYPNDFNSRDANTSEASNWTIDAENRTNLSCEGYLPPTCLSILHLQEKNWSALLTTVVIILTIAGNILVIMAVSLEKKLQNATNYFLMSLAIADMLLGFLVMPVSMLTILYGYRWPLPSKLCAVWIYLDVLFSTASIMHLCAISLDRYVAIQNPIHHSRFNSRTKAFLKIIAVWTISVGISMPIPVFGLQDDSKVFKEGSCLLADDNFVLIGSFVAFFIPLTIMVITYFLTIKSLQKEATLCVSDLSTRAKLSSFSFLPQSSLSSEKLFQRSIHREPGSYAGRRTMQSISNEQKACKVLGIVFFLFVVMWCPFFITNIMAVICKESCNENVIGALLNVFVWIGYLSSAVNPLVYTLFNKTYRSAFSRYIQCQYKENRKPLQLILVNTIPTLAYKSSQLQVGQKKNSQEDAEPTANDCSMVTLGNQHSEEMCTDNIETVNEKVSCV
Sequence of SUMO-activating enzyme (Q9UBE0 whole entry): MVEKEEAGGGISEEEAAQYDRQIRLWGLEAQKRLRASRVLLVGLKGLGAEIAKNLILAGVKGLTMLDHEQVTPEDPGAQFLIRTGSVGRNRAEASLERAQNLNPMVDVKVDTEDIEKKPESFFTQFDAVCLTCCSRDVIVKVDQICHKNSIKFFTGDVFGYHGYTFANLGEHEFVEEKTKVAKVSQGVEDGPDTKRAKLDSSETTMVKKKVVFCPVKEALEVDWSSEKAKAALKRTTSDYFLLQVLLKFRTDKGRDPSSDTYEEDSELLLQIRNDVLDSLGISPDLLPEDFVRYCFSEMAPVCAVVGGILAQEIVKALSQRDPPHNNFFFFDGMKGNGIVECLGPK
Sequence of SUMO-activating enzyme (Q9UBT2 whole entry): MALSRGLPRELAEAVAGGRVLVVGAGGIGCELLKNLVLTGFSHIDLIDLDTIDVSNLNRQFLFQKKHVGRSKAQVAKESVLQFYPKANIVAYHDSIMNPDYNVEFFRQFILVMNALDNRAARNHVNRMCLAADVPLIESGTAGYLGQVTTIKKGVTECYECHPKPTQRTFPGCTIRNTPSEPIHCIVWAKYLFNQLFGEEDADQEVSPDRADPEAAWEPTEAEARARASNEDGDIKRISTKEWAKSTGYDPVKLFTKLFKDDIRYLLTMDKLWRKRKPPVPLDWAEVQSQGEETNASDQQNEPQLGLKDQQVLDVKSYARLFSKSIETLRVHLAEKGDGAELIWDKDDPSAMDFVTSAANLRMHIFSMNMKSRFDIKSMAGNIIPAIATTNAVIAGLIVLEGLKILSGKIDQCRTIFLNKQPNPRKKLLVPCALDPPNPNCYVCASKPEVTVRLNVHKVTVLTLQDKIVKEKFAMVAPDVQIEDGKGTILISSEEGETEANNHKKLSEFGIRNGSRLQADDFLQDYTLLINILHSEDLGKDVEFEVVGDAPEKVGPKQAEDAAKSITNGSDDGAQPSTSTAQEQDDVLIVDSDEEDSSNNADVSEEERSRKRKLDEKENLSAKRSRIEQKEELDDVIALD

SMILES: CNCCCC1c2ccccc2C=Cc2ccccc21 [PROTRIPTYLINE HYDROCHLORIDE]
AC50 [1]: 31.6 µM (inconclusive)

EC50 [2]: 0.522 µM (active)
SMILES: CC1CCC(NC(=O)CCS(=O)(=O)c2ccc3c(c2)CCN3C(=O)C2CC2)CC1 (stereo not given)

SMILES: O=C(Nc1ccc2oc(-c3ccc4ccccc4c3)nc2c1)c1ccc2c(c1)OCCO2
EC50 [3]: 18.4 µM (active)
EC50 [4]: 12.4 µM (active)
EC50 [5]: 22.1 µM (not active)
IC50 (SUMO-activating enzyme): 38.9 µM (active)
EC50 [2]: 5.58 µM (active)
EC50 [6]: 27.1 µM (not active)
EC50 [7]: 37.1 µM (not active)

IC50 (Phospholipase A2): 7.12 µM (active)
IC50 (Cysteine protease ATG4B): 10.8 µM (active)
SMILES: CC(C)(C)n1ncc2c(=O)n(Cc3ccccc3Br)cnc21

SMILES: Cc1cc(C(=O)NNc2ccc(F)cc2F)no1
IC50 (HEK293): > 67.5 µM (inactive)
IC50 [8]: > 67.5 µM (inactive)
AC50 [9]: 1.1 µM (active)
EC50 [10]: > 38 µM (not active)
EC50 [11]: 2.93 µM (active)

SMILES: CCCN1CC[C@@H]2c3cc(O)ccc3CC[C@@H]21
EC50 (Mu-type opioid receptor): 92.5 µM (inactive)
EC50 [12]: 76.1 µM (inactive)
AC50 [1]: 35.5 µM (inconclusive)

SMILES: COc1cc(C(=O)N/N=C(\c2ccccc2)c2ccccn2)cc(OC)c1OC
IC50 [13]: > 40 µM (not active)
AC50 [14]: 13.8 µM (active)
EC50 (Beta-galactosidase): > 40 µM (inactive)
EC50 (cells [15]): 10.3 µM (active)
EC50 [16]: 0.473 µM (active)
AC50 (INS1): 0.499 µM (active)
EC50 (cells [17]): > 350 µM (not active)
EC50 [18]: 0.75 µM (active)

SMILES: CCCN(CCC)c1nc(-c2ccccn2)nc2ccccc12
AC50 [19]: 13.3 µM (active)
IC50 [13]: 23.9 µM (not active)
EC50 (Beta-galactosidase): > 40 µM (inactive)
EC50 [16]: 0.374 µM (active)
AC50 (INS1): 1.77 µM (active)
EC50 [20]: 1.02 µM (active)
EC50 [18]: 1.76 µM (active)
EC50 (Streptococcus): 1.85 µM (active)

IC50 [21]: 6.14 µM (not active)
IC50 (Phospholipase A2): 11.2 µM (active)
IC50 (Cysteine protease ATG4B): 16.3 µM (active)
SMILES: O=C(COC(=O)c1cc(Cl)ccc1[N+](=O)[O-])NCc1ccc(Cl)cc1Cl

SMILES: O=C(Nc1nc(-c2ccccc2)ns1)c1ccncc1
IC50 (HEK293): > 67.5 µM (inactive)
IC50 [8]: > 67.5 µM (inactive)
